Laboratory results taken from patent US11000033B2, “Ketone or oxime compound, and herbicide” (NISSAN CHEMICAL CORPORATION, priority 2014, dated 2021).

What was measured:
Format in all cases: in vivo
beet [1] = assay: Test Example 5: effect on crop by foliage application, plastic box (symbol f); details: 320 g/ha, 3 weeks after application
Summary of the method: (§1)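 Plants were raised from seed in a greenhouse (25° C. to 30° C.) after sowing in a plastic box of sterilized diluvial soil.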

soybean = assay: Test Example 4: effect on crop by soil treatment (symbol d); details: for d: soybean, effect grade on crop: 320 g/ha
Summary of the method: (§2)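 Plants grew in a 25° C. to 30° C. greenhouse after spot-sowing of seeds, including beet, rapeseed, wheat and rice, into sterilized diluvial soil under roughly 1.5 cm of cover soil.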

Abutilon theophrasti = assay: Test Example 5: herbicidal effect by foliage application, plastic box (symbol M); details: 320 g/ha, 3 weeks after application
Summary of the method: (§3)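 Emulsion formulation, diluted with water to the intended rate, was applied uniformly to leaves by small sprayer. Recipients were 14-day greenhouse-grown seedlings (25° C. to 30° C.). Assessment followed at 3 weeks.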

Lolium multiflorum Lam. = assay: Test Example 4: herbicidal effect by soil treatment (symbol K); details: for K: Lolium multiflorum Lam., herbicidal effect grade: 320 g/ha
Summary of the method: (§4)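 Seeds were sown in sterilized diluvial soil, covered with about 1.5 cm of soil, and the soil surface was sprayed with a water-diluted emulsion of the compound at a predetermined rate. Plants grew in a greenhouse at 25° C. to 30° C.; effects were scored visually 3 weeks after application.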

rice plant = assay: Test Example 5: effect on crop by foliage application, plastic box (symbol b); details: 320 g/ha, 3 weeks after application
Summary of the method: as §1

Alopecurus myosuroides = assay: Test Example 4: herbicidal effect by soil treatment (symbol J); details: for J: Alopecurus myosuroides, herbicidal effect grade: 320 g/ha
Summary of the method: as §4

[2] = tested on: Echinochloa crus-galli var. crus-galli; assay: Test Example 3: herbicidal effect by foliage application, Wagner pot (symbol H); details: application herbicide amount 320 g/ha
Summary of the method: (§5)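 The compound, formulated as an emulsion and diluted with water to a predetermined rate, is applied uniformly to leaves of two-week-old seedlings growing in submerged alluvial soil at 25–30 °C. Rice is included. Each plant is assessed 3 weeks later using defined criteria.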

Stellaria media = assay: Test Example 5: herbicidal effect by foliage application, plastic box (symbol P); details: 320 g/ha, 3 weeks after application
Summary of the method: as §3

Chenopodium album [3] = assay: Test Example 5: herbicidal effect by foliage application, plastic box (symbol O); details: 320 g/ha, 3 weeks after application
Summary of the method: as §3

[4] = tested on: Echinochloa crus-galli var. crus-galli; assay: Test Example 4: herbicidal effect by soil treatment (symbol H); details: for H: Echinochloa crus-galli var. crus-galli, herbicidal effect grade: 320 g/ha
Summary of the method: as §4

Chenopodium album [5] = assay: Test Example 4: herbicidal effect by soil treatment (symbol O); details: for O: Chenopodium album, herbicidal effect grade: 320 g/ha
From the text: Herbicidal Effect Test by Soil Treatment
Sterilized diluvial soil was placed in a plastic box having a length of 21 cm, a width of 13 cm, and a depth of 7 cm. Each of the seeds of Digitaria ciliaris, Setaria viridis, Echinochloa crus-galli var. crus-galli, Avena fatua, Alopecurus myosuroides, Lolium multiflorum Lam., Apera spica-venti, Abutilon theophrasti, Amaranthus retroflexus, Chenopodium album, Stellaria media, Galium spurium, Veronica persica, corn, soybean, rice, wheat, beet, and rapeseed was sowed in a spot-like manner and was covered with the soil of a thickness of about 1.5 cm. Subsequently, the emulsion agent of the compound present invention prepared in accordance with Formulation Example 2 was diluted with water so as to be a predetermined herbicide amount and the diluted emulsion agent was uniformly applied to the surface of the soil with a small-size spray. The plastic box was placed in a greenhouse of 25° C. to 30° C. to grow plant. 3 weeks later from the herbicide application, the effect to each plant was investigated in accordance with the criteria of Test Example 1.

Setaria viridis = assay: Test Example 5: herbicidal effect by foliage application, plastic box (symbol G); details: 320 g/ha, 3 weeks after application
Summary of the method: as §3

Cyperus difformis = assay: Test Example 3: herbicidal effect by foliage application, Wagner pot (symbol E); details: application herbicide amount 320 g/ha
Summary of the method: as §5

wheat = assay: Test Example 4: effect on crop by soil treatment (symbol e); details: for e: wheat, effect grade on crop: 320 g/ha
Summary of the method: as §2

Veronica persica = assay: Test Example 5: herbicidal effect by foliage application, plastic box (symbol R); details: 320 g/ha, 3 weeks after application
Summary of the method: as §3

Amaranthus retroflexus [6] = assay: Test Example 4: herbicidal effect by soil treatment (symbol N); details: for N: Amaranthus retroflexus, herbicidal effect grade: 320 g/ha
Summary of the method: as §4

Amaranthus retroflexus [7] = assay: Test Example 5: herbicidal effect by foliage application, plastic box (symbol N); details: 320 g/ha, 3 weeks after application
Summary of the method: as §3

beet [8] = assay: Test Example 4: effect on crop by soil treatment (symbol f); details: for f: beet, effect grade on crop: 320 g/ha
Summary of the method: as §2

[9] = tested on: Echinochloa oryzacola Vasing.; assay: Test Example 2: herbicidal activity, application during weed generation in submerged conditions (symbol A); details: Table 23; application herbicide amount 320 g/ha; grade 0-5 by criteria of Test Example 1
Summary of the method: (§6)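 Treatment timing was the one- to two-leaf stage, with diluted emulsifiable compound dropped onto the paddy water (depth 4 cm) over alluvial soil. All three species grew from a mixed sowing in a 25° C. to 30° C. greenhouse. Injury was judged by eye 3 weeks on.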

Scirpus juncoides = assay: Test Example 2: herbicidal activity, application during weed generation in submerged conditions (symbol B); details: Table 23; application herbicide amount 320 g/ha; grade 0-5 by criteria of Test Example 1
Summary of the method: as §6

[10] = application herbicide amount 320 g/ha

SMILES | f: beet, effect on crop (criteria 0-5) (beet [1]) | d: soybean, effect grade on crop (soybean) | M: Abutilon theophrasti, herbicidal effect (criteria 0-5) (Abutilon theophrasti) | K: Lolium multiflorum Lam., herbicidal effect grade (Lolium multiflorum Lam.) | b: directly sowed rice plant, effect on crop (criteria 0-5) (rice plant) | J: Alopecurus myosuroides, herbicidal effect grade (Alopecurus myosuroides) | herbicidal effect on H (Echinochloa crus-galli var. crus-galli), grade 0-5 [2] | P: Stellaria media, herbicidal effect (criteria 0-5) (Stellaria media) | O: Chenopodium album, herbicidal effect (criteria 0-5) (Chenopodium album [3]) | H: Echinochloa crus-galli var. crus-galli, herbicidal effect grade [4] | O: Chenopodium album, herbicidal effect grade (Chenopodium album [5]) | G: Setaria viridis, herbicidal effect (criteria 0-5) (Setaria viridis) | herbicidal effect on E, grade 0-5 (Cyperus difformis) | e: wheat, effect grade on crop (wheat) | R: Veronica persica, herbicidal effect (criteria 0-5) (Veronica persica) | N: Amaranthus retroflexus, herbicidal effect grade (Amaranthus retroflexus [6]) | N: Amaranthus retroflexus, herbicidal effect (criteria 0-5) (Amaranthus retroflexus [7]) | f: beet, effect grade on crop (beet [8]) | further results
CC(CC1CC(OC(=O)N2CCOCC2)=C(c2c(C)cc(-c3ccc(Cl)cc3)cc2C)C1=O)=NOCC(F)(F)F (mixture of isomers) [9-025] | – | – | – | – | – | – | – | – | – | – | – | – | – | – | – | – | – | – | f: beet, effect on crop grade (beet [1]): 0 (Herbicidal ratio of 5% or lower (almost no effect)); Effect on crop grade, d: soybean (soybean; [10]): 0 (Herbicidal ratio of 5% or lower (almost no effect)); M: Abutilon theophrasti, herbicidal effect grade (Abutilon theophrasti): 0 (Herbicidal ratio of 5% or lower (almost no effect)); Herbicidal effect grade, K: Lolium multiflorum Lam. (Lolium multiflorum Lam.; [10]): 0 (Herbicidal ratio of 5% or lower (almost no effect)); b: directly sowed rice plant, effect on crop grade (rice plant): 0 (Herbicidal ratio of 5% or lower (almost no effect)); Herbicidal effect grade, J: Alopecurus myosuroides (Alopecurus myosuroides; [10]): 0 (Herbicidal ratio of 5% or lower (almost no effect)); H (Echinochloa crus-galli var. crus-galli) herbicidal effect grade ([2]; Table 24): 0 (Herbicidal ratio of 5% or lower (almost no effect)); P: Stellaria media, herbicidal effect grade (Stellaria media): 0 (Herbicidal ratio of 5% or lower (almost no effect)); O: Chenopodium album, herbicidal effect grade (Chenopodium album [3]): 0 (Herbicidal ratio of 5% or lower (almost no effect)); Herbicidal effect grade, H: Echinochloa crus-galli var. crus-galli [4, 10]: 0 (Herbicidal ratio of 5% or lower (almost no effect)); Herbicidal effect grade, O: Chenopodium album (Chenopodium album [5]; [10]): 0 (Herbicidal ratio of 5% or lower (almost no effect)); G: Setaria viridis, herbicidal effect grade (Setaria viridis): 4 (Herbicidal ratio of 70% or higher and lower than 90%); E herbicidal effect grade (Cyperus difformis; Table 24): 0 (Herbicidal ratio of 5% or lower (almost no effect)); Effect on crop grade, e: wheat (wheat; [10]): 0 (Herbicidal ratio of 5% or lower (almost no effect)); R: Veronica persica, herbicidal effect grade (Veronica persica): 0 (Herbicidal ratio of 5% or lower (almost no effect)); Herbicidal effect grade, N: Amaranthus retroflexus (Amaranthus retroflexus [6]; [10]): 0 (Herbicidal ratio of 5% or lower (almost no effect)); N: Amaranthus retroflexus, herbicidal effect grade (Amaranthus retroflexus [7]): 0 (Herbicidal ratio of 5% or lower (almost no effect)); Effect on crop grade, f: beet (beet [8]; [10]): 0 (Herbicidal ratio of 5% or lower (almost no effect))
CC(CC1CC(O)=C(c2c(C)cc(C)cc2C)C1=O)=NOCc1ccccc1[N+](=O)[O-] (stereo not shown) [1-119] | 0 (Herbicidal ratio of 5% or lower (almost no effect)) | 0 (Herbicidal ratio of 5% or lower (almost no effect)) | 1 (Herbicidal ratio of 5% or higher and lower than 20%) | 5 (Herbicidal ratio of 90% or more (almost completely withered)) | 5 (Herbicidal ratio of 90% or more (almost completely withered)) | 4 (Herbicidal ratio of 70% or higher and lower than 90%) | 5 (Herbicidal ratio of 90% or more (almost completely withered)) | 1 (Herbicidal ratio of 5% or higher and lower than 20%) | 3 (Herbicidal ratio of 40% or higher and lower than 70%) | 5 (Herbicidal ratio of 90% or more (almost completely withered)) | 0 (Herbicidal ratio of 5% or lower (almost no effect)) | 5 (Herbicidal ratio of 90% or more (almost completely withered)) | 0 (Herbicidal ratio of 5% or lower (almost no effect)) | 0 (Herbicidal ratio of 5% or lower (almost no effect)) | 3 (Herbicidal ratio of 40% or higher and lower than 70%) | 0 (Herbicidal ratio of 5% or lower (almost no effect)) | 0 (Herbicidal ratio of 5% or lower (almost no effect)) | 0 (Herbicidal ratio of 5% or lower (almost no effect)) | –
CON=C(C)CC1CC(OC(=O)N(C)CCCCCl)=C(c2c(C)cc(C)cc2C)C1=O (stereo not shown) [1-126] | 0 (Herbicidal ratio of 5% or lower (almost no effect)) | 0 (Herbicidal ratio of 5% or lower (almost no effect)) | 0 (Herbicidal ratio of 5% or lower (almost no effect)) | 4 (Herbicidal ratio of 70% or higher and lower than 90%) | 4 (Herbicidal ratio of 70% or higher and lower than 90%) | 3 (Herbicidal ratio of 40% or higher and lower than 70%) | 3 (Herbicidal ratio of 40% or higher and lower than 70%) | 0 (Herbicidal ratio of 5% or lower (almost no effect)) | – | 0 (Herbicidal ratio of 5% or lower (almost no effect)) | 0 (Herbicidal ratio of 5% or lower (almost no effect)) | 4 (Herbicidal ratio of 70% or higher and lower than 90%) | 2 (Herbicidal ratio of 20% or higher and lower than 40%) | 0 (Herbicidal ratio of 5% or lower (almost no effect)) | 0 (Herbicidal ratio of 5% or lower (almost no effect)) | 0 (Herbicidal ratio of 5% or lower (almost no effect)) | 0 (Herbicidal ratio of 5% or lower (almost no effect)) | 0 (Herbicidal ratio of 5% or lower (almost no effect)) | –
CC(CC1CC(O)=C(c2c(C)cc(C)cc2C)C1=O)=NOCc1ccc(Cl)cc1 (stereo not shown) [1-137] | 0 (Herbicidal ratio of 5% or lower (almost no effect)) | 0 (Herbicidal ratio of 5% or lower (almost no effect)) | 4 (Herbicidal ratio of 70% or higher and lower than 90%) | 5 (Herbicidal ratio of 90% or more (almost completely withered)) | 5 (Herbicidal ratio of 90% or more (almost completely withered)) | 5 (Herbicidal ratio of 90% or more (almost completely withered)) | 5 (Herbicidal ratio of 90% or more (almost completely withered)) | 0 (Herbicidal ratio of 5% or lower (almost no effect)) | 3 (Herbicidal ratio of 40% or higher and lower than 70%) | 5 (Herbicidal ratio of 90% or more (almost completely withered)) | 0 (Herbicidal ratio of 5% or lower (almost no effect)) | 5 (Herbicidal ratio of 90% or more (almost completely withered)) | – | 0 (Herbicidal ratio of 5% or lower (almost no effect)) | 2 (Herbicidal ratio of 20% or higher and lower than 40%) | – | – | 0 (Herbicidal ratio of 5% or lower (almost no effect)) | Herbicidal effect grade, A: Echinochloa oryzacola Vasing. [9]: 4 (Herbicidal ratio of 70% or higher and lower than 90%); Herbicidal effect grade, B: Scirpus juncoides (Scirpus juncoides): 4 (Herbicidal ratio of 70% or higher and lower than 90%)
